Data taken from patent publication US11214803B2, “Modulators of YAP1 expression” (Ionis Pharmaceuticals, Inc., priority 2019, dated 2022).

Columns and labels:
[1] = rat, in vivo, sc, 50 mg/kg
Description: Male Sprague-Dawley rats were maintained on a 12-hour light/dark cycle and fed ad libitum with Purina normal rat chow. Groups of 4 Sprague-Dawley rats each were weekly injected subcutaneously with 50 mg/kg of Ionis oligonucleotide for 6 weeks (total 7 doses). Forty-eight hours after the last dose, the rats were euthanized; and organs, urine and plasma were harvested for further analysis.
To evaluate the effect of Ionis oligonucleotides on kidney function, urinary levels of total protein and creatinine were measured using an automated clinical chemistry analyzer (Hitachi Olympus AU400c, Melville, N.Y.).

Yap1 mRNA [2] = assay: Inhibition of human Yap1 mRNA in epidermoid carcinoma A-431 xenograft tumors (Example 27); format: in vivo; conditions: A-431 xenografts in NCr-Foxn1nu mice, 6-8 hours post final dose, relative to PBS
Description: An epidermoid carcinoma A-431 xenograft tumor model was used to evaluate activity of modified oligonucleotides targeted to human Yap1. Five million A-431 cells in 30% matrigel were implanted subcutaneously into the flanks of female NCr-Foxn1nu mice (from Taconic) at 4-6 weeks of age. When tumors reached an average volume of 40 mm^3, approximately two weeks post-implantation, groups of four mice each were administered at either 25 mg/kg or 50 mg/kg daily with modified oligonucleotides for […] (5 doses). Tumors were collected 6-8 hours post final dose and tested for Yap1 mRNA knockdown by RT-qPCR. Yap1 mRNA levels were measured as previously described using the Human Yap1 primer-probe set RTS4814. Yap1 mRNA levels were normalized to actin-beta content, as measured by primer probe set RTS5002. Results are presented in the tables below as percent control of the amount of Yap1 mRNA relative to PBS treated animals (% control).

[3] = Cynomolgus monkey tolerability, kidney and liver function markers (Example 34); conditions: cynomolgus monkeys, 35 mg/kg subcutaneously, day 44
Description: Prior to the study, the monkeys were kept in quarantine during which the animals were observed daily for general health. The monkeys were 2-4 years old and weighed 2-4 kg. Eleven groups of 4 randomly assigned male cynomolgus monkeys each were injected subcutaneously with Ionis oligonucleotide or saline in a clock-wise rotation between four different sites on the back. Following loading doses on days 1, 3, 5 and 7, the monkeys were dosed once per week (on days 14, 21, 28, 35, and 42) with 35 mg/kg of Ionis oligonucleotide.
To evaluate the effect of Ionis oligonucleotides on hepatic and kidney function, blood samples were collected from all the study groups on day 44. The monkeys were fasted overnight prior to blood collection. Blood was collected in tubes without anticoagulant for serum separation. The tubes were kept at room temperature for a minimum of 90 minutes and then centrifuged at 3000 rpm for 10 minutes to obtain serum. Levels of various liver function markers were measured using a Toshiba 200FR NEO chemistry analyzer (Toshiba Co., Japan).

[4] = Tolerability in Sprague-Dawley rats, plasma chemistry markers (Example 22); format: in vivo; conditions: male Sprague-Dawley rats, 50 mg/kg s.c. weekly for 6 weeks (7 doses), 48 hours after last dose
Description: Sprague-Dawley rats are a multipurpose model used for safety and efficacy evaluations. The rats were treated with Ionis modified oligonucleotides from the studies described in the Examples above and evaluated for changes in the levels of various plasma chemistry markers.

[5] = Cynomolgus monkey tolerability, coagulation (Example 34); format: in vivo; conditions: cynomolgus monkeys, 35 mg/kg subcutaneously, day 44
Description: To evaluate effect of Ionis modified oligonucleotides on coagulation in cynomolgus monkeys, blood samples of approximately 0.9 mL were collected from each of the available study animals on day 44. The samples were collected in tubes containing 3.2% sodium citrate. Coagulation parameters tested include Activated partial thromboplastin time (APTT), prothrombin time (PT) and Figrinogen (FIB).

[6] = Cynomolgus monkey tolerability, body and organ weight measurements (Example 34); format: in vivo; conditions: cynomolgus monkeys, 35 mg/kg subcutaneously; for Heart weight / Kidney weight / Liver with gallbladder weight / Spleen weight: necropsy; for Terminal Body Weight: prior to necropsy
Description: Cynomolgus monkeys were treated with Ionis modified oligonucleotides selected from studies described in the Examples above. Modified oligonucleotide tolerability was evaluated.
During the study period, the monkeys were observed twice daily for signs of illness or distress. Any animal experiencing more than momentary or slight pain or distress due to the treatment, injury or illness was treated by the veterinary staff with approved analgesics or agents to relieve the pain after consultation with the Study Director. Any animal in poor health or in a possible moribund condition was identified for further monitoring and possible euthanasia. Scheduled euthanasia of the animals was conducted on day 86 approximately 48 hours after the last dose by exsanguination while under deep anesthesia. The protocols described in the Example were approved by the Institutional Animal Care and Use Committee (IACUC).
To evaluate the effect of Ionis oligonucleotides on the overall health of the animals, body and organ weights were measured. Terminal body weight was measured prior to necropsy.

Yap1 mRNA [7] = assay: Dose-dependent inhibition of human Yap1 in A-431 cells (Example 24, 11,000 cells per well, RTS36584, normalized to GAPDH); format: cell-based; conditions: free uptake, 48 hours; for Yap1 mRNA, % UTC: RTS36584, normalized to GAPDH
Description: Modified oligonucleotides described in the studies above were tested at various doses in A-431 cells. Cultured A-431 cells at a density of 11,000 cells per well were treated using free uptake with modified oligonucleotides diluted to concentrations described in the tables below. After approximately 48 hours, Yap1 mRNA levels were measured as previously described using the Human Yap1 primer-probe set RTS36584. Yap1 mRNA levels were normalized to GAPDH content, as measured by primer probe set RTS104 (forward sequence […], designated herein as SEQ ID NO.: 17; reverse sequence […], designated herein as SEQ ID NO.: 18; probe sequence […], designated herein as SEQ ID NO.: 19). Results are presented in the tables below as percent control of the amount of Yap1 mRNA relative to untreated control cells (% UTC). IC50s were calculated using a linear regression on a log/linear plot of the data in excel.

Yap1 mRNA [8] = assay: Inhibition of human Yap1 mRNA in squamous cell carcinoma CAL27 xenograft tumors (Example 28); format: in vivo; conditions: CAL27 xenografts in NCr-Foxn1nu mice, relative to PBS treated
Description: A squamous cell carcinoma CAL27 xenograft tumor model was used to evaluate activity of modified oligonucleotides targeted to human Yap1. Five million CAL27 cells in 30% matrigel were implanted subcutaneously into the flanks of female CrTac:NCr-Foxn1nu mice (from Taconic) at 4-6 weeks of age. Groups of four mice each were administered with either 15 mg/kg or 30 mg/kg of modified oligonucleotides daily for five days after tumor size had reached ˜100 mm^3 (about 3 weeks post implantation). Tumors were collected and tested for Yap1 mRNA knockdown by RT-qPCR. Yap1 mRNA levels were measured as previously described using the Human Yap1 primer-probe set RTS4814. Yap1 mRNA levels were normalized to actin-beta content, as measured by primer probe set RTS5002. Results are presented in the tables below as percent control of the amount of Yap1 mRNA relative to PBS treated […].

Substance | URINE P/C ratio (total protein to creatinine ratio) [1] | Yap1 mRNA in tumors, % control (Yap1 mRNA [2]; 25 mpk daily (5 doses)) [% control] | Yap1 mRNA in tumors, % control (Yap1 mRNA [2]; 50 mpk daily (5 doses)) [% control] | ALB [3] [g/dL] | ALP [3] [IU/L] | ALT [3] [IU/L] | AST [3] [IU/L] | BUN [3] [mg/dL] | CREA [3] [mg/dL] | GGT [3] [IU/L] | GLO [3] [g/dL] | GLU [3] [mg/dL] | HDL [3] [mg/dL] | LDL [3] [mg/dL] | TBIL [3] [mg/dL] | TG [3] [mg/dL] | TP [3] [g/dL] | ALT [4] [U/L] | AST [4] [U/L] | BUN [4] [mg/dL] | other results
1198623 (CTAAGTAAGGTTTCCC; modified gapmer, further chemistry not given here) [compound 1198623] | 5 | 43 | 36 | 4.2 | 916 | 50 | 47 | 26 | 0.8 | 59 | 3.0 | 70 | 87 | 50 | 0.2 | 34 | 7.2 | 96 | 87 | 21 | TBIL [4]: 0.24 mg/dL; APTT [5]: 17 s; FIB [5]: 229 mg/dL; PT [5]: 10 s; Heart weight [6]: 9 g; Kidney weight [6]: 13 g; Liver with gallbladder weight [6]: 62 g; Spleen weight [6]: 3 g; Terminal Body Weight [6]: 2790 g; Yap1 mRNA, % UTC (Yap1 mRNA [7]; 0.002 μM): 2 % UTC; Yap1 mRNA, % UTC (Yap1 mRNA [7]; 0.008 μM): 5 % UTC; Yap1 mRNA, % UTC (Yap1 mRNA [7]; 0.04 μM): 28 % UTC; Yap1 mRNA, % UTC (Yap1 mRNA [7]; 0.2 μM): 72 % UTC; Yap1 mRNA, % UTC (Yap1 mRNA [7]; 1 μM): 96 % UTC; Yap1 mRNA in tumors, % UTC (Yap1 mRNA [8]; 15 mg/kg daily for five days): 52 % UTC; Yap1 mRNA in tumors, % UTC (Yap1 mRNA [8]; 30 mg/kg daily for five days): 44 % UTC
1197270 (TTAAAGTGTATGTCAG; cEt gapmer with 2'-OMe nucleoside, phosphorothioate, further chemistry not given here) [compound 1197270] | 14 | 57 | 38 | 3.7 | 1215 | 84 | 78 | 27 | 0.9 | 75 | 3.1 | 115 | 102 | 48 | 0.2 | 31 | 6.8 | 84 | 120 | 24 | TBIL [4]: 0.19 mg/dL; APTT [5]: 17 s; FIB [5]: 257 mg/dL; PT [5]: 10 s; Heart weight [6]: 10 g; Kidney weight [6]: 17 g; Liver with gallbladder weight [6]: 73 g; Spleen weight [6]: 4 g; Terminal Body Weight [6]: 2852 g; Yap1 mRNA, % UTC (Yap1 mRNA [7]; 0.002 μM): 0 % UTC; Yap1 mRNA, % UTC (Yap1 mRNA [7]; 0.008 μM): 2 % UTC; Yap1 mRNA, % UTC (Yap1 mRNA [7]; 0.04 μM): 26 % UTC; Yap1 mRNA, % UTC (Yap1 mRNA [7]; 0.2 μM): 80 % UTC; Yap1 mRNA, % UTC (Yap1 mRNA [7]; 1 μM): 99 % UTC; IC50 (Yap1 mRNA [7]; linear regression on a log/linear plot): 20 nM; Yap1 mRNA in tumors, % UTC (Yap1 mRNA [8]; 15 mg/kg daily for five days): 55 % UTC; Yap1 mRNA in tumors, % UTC (Yap1 mRNA [8]; 30 mg/kg daily for five days): 38 % UTC
1198831 (CACTTTTACATTAGGA; chemically modified gapmer, further chemistry not given here) [compound 1198831] | 17 | 47 | 37 | 3.9 | 1096 | 48 | 63 | 26 | 0.7 | 65 | 2.8 | 73 | 108 | 63 | 0.3 | 22 | 6.7 | 54 | 69 | 23 | TBIL [4]: 0.20 mg/dL; APTT [5]: 18 s; FIB [5]: 209 mg/dL; PT [5]: 10 s; Heart weight [6]: 11 g; Kidney weight [6]: 14 g; Liver with gallbladder weight [6]: 65 g; Spleen weight [6]: 4 g; Terminal Body Weight [6]: 2788 g; Yap1 mRNA, % UTC (Yap1 mRNA [7]; 0.002 μM): 2 % UTC; Yap1 mRNA, % UTC (Yap1 mRNA [7]; 0.008 μM): 6 % UTC; Yap1 mRNA, % UTC (Yap1 mRNA [7]; 0.04 μM): 28 % UTC; Yap1 mRNA, % UTC (Yap1 mRNA [7]; 0.2 μM): 72 % UTC; Yap1 mRNA, % UTC (Yap1 mRNA [7]; 1 μM): 83 % UTC; Yap1 mRNA in tumors, % UTC (Yap1 mRNA [8]; 15 mg/kg daily for five days): 70 % UTC; Yap1 mRNA in tumors, % UTC (Yap1 mRNA [8]; 30 mg/kg daily for five days): 48 % UTC
1198872 (TGTATGTCAGAAGAGT; chemically modified gapmer, further chemistry not given here) [compound 1198872] | 8 | 34 | 26 | 4.0 | 1098 | 48 | 94 | 27 | 0.9 | 79 | 3.1 | 80 | 114 | 60 | 0.3 | 19 | 7.1 | 109 | 134 | 18 | TBIL [4]: 0.20 mg/dL; APTT [5]: 21 s; FIB [5]: 206 mg/dL; PT [5]: 10 s; Heart weight [6]: 12 g; Kidney weight [6]: 15 g; Liver with gallbladder weight [6]: 63 g; Spleen weight [6]: 4 g; Terminal Body Weight [6]: 3126 g; Yap1 mRNA, % UTC (Yap1 mRNA [7]; 0.002 μM): 1 % UTC; Yap1 mRNA, % UTC (Yap1 mRNA [7]; 0.008 μM): 3 % UTC; Yap1 mRNA, % UTC (Yap1 mRNA [7]; 0.04 μM): 19 % UTC; Yap1 mRNA, % UTC (Yap1 mRNA [7]; 0.2 μM): 70 % UTC; Yap1 mRNA, % UTC (Yap1 mRNA [7]; 1 μM): 94 % UTC; Yap1 mRNA in tumors, % UTC (Yap1 mRNA [8]; 15 mg/kg daily for five days): 55 % UTC; Yap1 mRNA in tumors, % UTC (Yap1 mRNA [8]; 30 mg/kg daily for five days): 38 % UTC
